For assay [1], the target named is T1, Histamine H3 receptor (Homo sapiens, UniProt Q9Y5N1). The experiment in a line: Agonist activity at human histamine H3 receptor assessed as effect on [35S]GTPgammaS binding. Format: functional.
For assay [2], the target named is T1, Histamine H3 receptor. The experiment in a line: Displacement of [3H]N-alpha-methylhistamine from human histamine H3 receptor expressed in CHO cells. Format: cell-based.
The nature of assay [3]: Inhibition of […] in human liver microsomes assessed as midazolam 1'-hydroxylase activity. Format: ADME, Microsome.
In the next assay the target is Cytochrome P450 2D6 (Homo sapiens, UniProt P10635). The assay can be described thus: Inhibition of CYP2D6 in human liver microsomes assessed as dextromethorphan O-demethylase activity. Format: ADME, Microsome.
Sequence of Cytochrome P450 2D6 (P10635 whole entry): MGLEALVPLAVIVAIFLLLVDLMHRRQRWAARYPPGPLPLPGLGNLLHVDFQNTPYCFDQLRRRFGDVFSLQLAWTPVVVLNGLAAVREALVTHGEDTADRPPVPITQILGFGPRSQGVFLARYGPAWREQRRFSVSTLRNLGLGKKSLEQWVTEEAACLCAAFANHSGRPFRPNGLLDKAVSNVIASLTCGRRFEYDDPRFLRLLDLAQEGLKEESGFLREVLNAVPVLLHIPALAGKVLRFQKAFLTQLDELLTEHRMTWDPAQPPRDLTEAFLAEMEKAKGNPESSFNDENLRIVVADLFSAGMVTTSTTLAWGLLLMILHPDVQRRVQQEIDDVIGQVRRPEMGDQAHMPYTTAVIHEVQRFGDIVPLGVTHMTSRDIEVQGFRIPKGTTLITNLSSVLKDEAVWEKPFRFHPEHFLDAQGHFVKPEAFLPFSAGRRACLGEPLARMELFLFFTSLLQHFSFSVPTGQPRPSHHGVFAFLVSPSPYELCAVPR
Assay [4] deals with Histamine H3 receptor (Rattus norvegicus) (UniProt Q9QYN8). The settings on record: Cortex.
Sequence of Histamine H3 receptor (Rattus norvegicus) (Q9QYN8 whole entry): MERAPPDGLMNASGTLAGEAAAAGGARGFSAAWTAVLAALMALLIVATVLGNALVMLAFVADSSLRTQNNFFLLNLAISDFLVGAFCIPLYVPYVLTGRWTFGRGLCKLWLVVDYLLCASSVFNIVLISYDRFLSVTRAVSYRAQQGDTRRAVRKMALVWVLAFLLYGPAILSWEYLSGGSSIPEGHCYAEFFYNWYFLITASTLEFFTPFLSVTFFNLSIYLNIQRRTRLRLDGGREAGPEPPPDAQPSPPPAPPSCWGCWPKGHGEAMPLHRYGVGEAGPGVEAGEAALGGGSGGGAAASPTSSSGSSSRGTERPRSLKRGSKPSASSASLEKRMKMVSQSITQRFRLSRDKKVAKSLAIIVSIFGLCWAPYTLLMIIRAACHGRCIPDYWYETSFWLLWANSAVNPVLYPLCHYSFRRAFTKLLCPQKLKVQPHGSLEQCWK
For assay [5], the target named is T2, Histamine H3 receptor (Cavia porcellus, UniProt Q9JI35). The assay can be described thus: Activity at histamine H3 receptor in guinea pig ileum. In kind it is tissue-based.
T2 sequence (Q9JI35 whole entry): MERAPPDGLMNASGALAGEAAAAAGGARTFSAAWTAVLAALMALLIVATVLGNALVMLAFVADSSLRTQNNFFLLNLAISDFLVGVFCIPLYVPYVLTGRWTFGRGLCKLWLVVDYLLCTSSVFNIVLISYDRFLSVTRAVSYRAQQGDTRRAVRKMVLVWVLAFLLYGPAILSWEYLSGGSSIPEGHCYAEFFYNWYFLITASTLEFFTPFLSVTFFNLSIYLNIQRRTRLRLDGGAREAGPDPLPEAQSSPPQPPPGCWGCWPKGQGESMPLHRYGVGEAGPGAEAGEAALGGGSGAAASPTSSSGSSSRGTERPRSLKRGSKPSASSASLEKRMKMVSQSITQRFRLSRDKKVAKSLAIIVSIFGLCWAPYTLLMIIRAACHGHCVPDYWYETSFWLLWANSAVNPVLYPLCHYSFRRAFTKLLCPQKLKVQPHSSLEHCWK
For assay [6], the target named is Histamine H3 receptor (Cavia porcellus) (UniProt Q9JI35). As to conditions: Ileum.
Sequence of Histamine H3 receptor (Cavia porcellus) (Q9JI35 whole entry): as above
Assay [7] deals with Histamine H1 receptor (Homo sapiens) (UniProt P35367). The assay can be described thus: Inhibition of histamine H1 receptor at 10 uM.
Sequence of Histamine H1 receptor (Homo sapiens) (P35367 whole entry): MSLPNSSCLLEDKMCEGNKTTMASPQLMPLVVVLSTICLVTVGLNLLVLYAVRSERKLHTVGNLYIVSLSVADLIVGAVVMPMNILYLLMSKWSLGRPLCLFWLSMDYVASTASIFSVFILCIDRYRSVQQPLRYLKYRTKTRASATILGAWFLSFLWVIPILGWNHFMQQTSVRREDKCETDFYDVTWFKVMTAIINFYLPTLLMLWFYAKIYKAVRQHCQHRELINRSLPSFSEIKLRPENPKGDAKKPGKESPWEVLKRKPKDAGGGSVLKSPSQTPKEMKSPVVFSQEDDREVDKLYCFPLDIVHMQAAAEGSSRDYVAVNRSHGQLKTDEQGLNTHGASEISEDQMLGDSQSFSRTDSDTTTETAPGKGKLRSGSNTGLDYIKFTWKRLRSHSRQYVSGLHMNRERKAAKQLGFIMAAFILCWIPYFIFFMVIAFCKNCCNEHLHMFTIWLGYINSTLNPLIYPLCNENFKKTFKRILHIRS
Assay [8] addresses T2, Histamine H3 receptor. The assay can be described thus: Antagonist activity at guinea pig histamine H3 receptor assessed as inhibition of electrically induced twitch contraction. The settings on record: read-out: pA2 (converted). In kind it is functional.
Assay [9] addresses T3, Histamine H4 receptor (Homo sapiens, UniProt Q9H3N8). The assay can be described thus: Displacement of [3H]histamine from human histamine H4 receptor expressed in CHO cells. In kind it is cell-based.
In assay [10] the target is Histamine H2 receptor (Homo sapiens) (UniProt P25021). The experiment in a line: Inhibition of histamine H2 receptor at 10 uM.
Sequence of Histamine H2 receptor (Homo sapiens) (P25021 whole entry): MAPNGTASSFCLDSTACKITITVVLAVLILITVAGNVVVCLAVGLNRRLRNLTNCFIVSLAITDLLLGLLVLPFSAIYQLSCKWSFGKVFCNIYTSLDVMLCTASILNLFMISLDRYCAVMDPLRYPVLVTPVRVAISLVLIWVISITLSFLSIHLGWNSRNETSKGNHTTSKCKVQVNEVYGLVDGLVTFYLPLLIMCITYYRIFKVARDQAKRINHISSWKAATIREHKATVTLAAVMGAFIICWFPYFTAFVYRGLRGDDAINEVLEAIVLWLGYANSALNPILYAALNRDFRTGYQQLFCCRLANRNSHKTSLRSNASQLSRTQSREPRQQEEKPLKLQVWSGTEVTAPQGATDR
Assay [11] has as its target T1, Histamine H3 receptor. The assay can be described thus: Agonist activity at human histamine H3 receptor assessed as beta galactosidase activity. In kind it is functional.
For assay [12], the target named is T3, Histamine H4 receptor. The experiment in a line: Displacement of [3H]histamine from human histamine H4 receptor expressed in CHO cells at 10 uM. In kind it is cell-based.
For assay [13], the target named is Histamine H3 receptor (Rattus norvegicus, UniProt Q9QYN8). The experiment in a line: Agonist activity at histamine H3 receptor in rat cortex.
Sequence of Histamine H3 receptor (Rattus norvegicus, UniProt Q9QYN8) (Q9QYN8 whole entry): as the sequence (Q9QYN8 whole entry) above

T1 sequence (Q9Y5N1 whole entry): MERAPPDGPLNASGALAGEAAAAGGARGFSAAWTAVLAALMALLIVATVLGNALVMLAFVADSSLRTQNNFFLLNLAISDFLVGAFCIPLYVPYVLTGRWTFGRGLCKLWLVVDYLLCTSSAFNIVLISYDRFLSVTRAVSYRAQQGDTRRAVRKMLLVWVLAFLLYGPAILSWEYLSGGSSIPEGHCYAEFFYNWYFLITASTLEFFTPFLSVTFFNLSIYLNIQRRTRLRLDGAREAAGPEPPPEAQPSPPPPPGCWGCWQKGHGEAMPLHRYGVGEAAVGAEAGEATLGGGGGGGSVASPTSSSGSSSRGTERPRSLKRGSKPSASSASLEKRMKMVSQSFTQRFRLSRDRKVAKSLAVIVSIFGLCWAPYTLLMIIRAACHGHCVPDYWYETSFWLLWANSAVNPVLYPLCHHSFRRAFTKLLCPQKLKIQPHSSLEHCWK
T3 sequence (Q9H3N8 whole entry): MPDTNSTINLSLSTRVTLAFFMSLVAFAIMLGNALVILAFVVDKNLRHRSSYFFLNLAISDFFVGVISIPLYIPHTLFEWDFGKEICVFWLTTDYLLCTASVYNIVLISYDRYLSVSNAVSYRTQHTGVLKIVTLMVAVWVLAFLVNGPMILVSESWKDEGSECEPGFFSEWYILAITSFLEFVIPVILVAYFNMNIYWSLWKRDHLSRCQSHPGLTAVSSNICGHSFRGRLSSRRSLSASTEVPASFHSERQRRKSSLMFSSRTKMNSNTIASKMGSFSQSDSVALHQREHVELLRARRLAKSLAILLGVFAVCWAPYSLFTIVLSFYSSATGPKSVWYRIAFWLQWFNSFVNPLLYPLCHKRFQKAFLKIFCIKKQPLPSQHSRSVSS

As for `CC1(C)COC(c2cccc(Cc3c[nH]cn3)c2)=N1`, the EC50 on Histamine H3 receptor [1] was 15.8 nM. Besides, at Histamine H3 receptor [2], the Ki was 3.98 nM.
Regarding `c1nc(CC2CCNCC2)c[nH]1` [IMMEPIP], the affinity on Histamine H3 receptor [2] corresponds to a Ki of 0.407 nM. This lies in the sub-nanomolar range.
On to `CCCC#Cc1cccc(Cc2c[nH]cn2)c1`, for which the IC50 in assay [3] stood at 1640 nM; on Cytochrome P450 2D6 it was 644 nM. This molecule showed a Ki at Histamine H3 receptor [2] of 3.16 nM.
For `c1ccc(-c2cccc(Cc3cnc[nH]3)c2)cc1`, the EC50 at Histamine H3 receptor [1] is 200 nM. The molecule further showed an inhibitory constant (Ki) on Histamine H3 receptor [2] of 33.1 nM.
In turn, `C[C@@H](N)Cc1c[nH]cn1` returned a pD2 in assay [4] of 8.4.
With `c1cc(Cc2cnc[nH]2)cc(C2=NC3(CCCC3)CO2)c1`, the affinity at Histamine H3 receptor [2], expressed as Ki, was 39.8 nM.
Still for that read-out and setting: next, `c1cc(Cc2c[nH]cn2)cc(C2=NCC3(CCCCC3)O2)c1`: 56.2 nM.
Consider `Brc1ccc(Cc2c[nH]cn2)cc1`, for which the EC50 on Histamine H3 receptor [1] was 631 nM. Besides, on Histamine H3 receptor [2], the affinity corresponds to a Ki of 417 nM.
As for `C(#Cc1cccc2ccccc12)c1cccc(Cc2c[nH]cn2)c1`, the affinity on Histamine H3 receptor [2] corresponds to a Ki of 1740 nM.
The same measure, in the same setting: next, `c1cc(Cc2cnc[nH]2)cc(-c2ccncc2)c1`: 427 nM.
Regarding `C[C@H]1CNC[C@@H]1c1c[nH]cn1`, affinity on Histamine H3 receptor [5] was put at a Ki of 2.51 nM. In [6], this molecule had a pD2 of 7.5.
Regarding `CC1(C)CN=C(c2cccc(Cc3cnc[nH]3)c2)OC1`, the affinity at Histamine H3 receptor [2] corresponds to a Ki of 2510 nM.
In the case of `c1ccc(-c2cccc(Cc3c[nH]cn3)c2)nc1`, at Histamine H3 receptor [2], the Ki was 40.7 nM.
The same measure, in the same setting: for `N#Cc1cccc(Cc2c[nH]cn2)c1` the value was 155 nM.
Take `C(#Cc1cccc(Cc2c[nH]cn2)c1)c1ccccc1`: the IC50 in assay [3] was determined as 2760 nM; on Cytochrome P450 2D6, 488 nM. The Ki at Histamine H3 receptor [2] was 1.82 nM.
Consider `CC(C)(C)CCC#C[C@@H]1C[C@H]1c1c[nH]cn1` (single isomer, unassigned) [CIPRALISANT], for which, at Histamine H3 receptor [2], the inhibition constant Ki was 3.98 nM. That is a single-digit nanomolar value.
The same measure, in the same setting: next, `c1cc(Cc2cnc[nH]2)cc(C2=NC(CC3CCCCC3)CO2)c1` (stereo unspecified): 708 nM.
For `CC1CC(C)(C)N=C(c2cccc(Cc3c[nH]cn3)c2)O1` (stereo unspecified), the inhibition in [7] was less than 20%; in assay [10] it was less than 40%. Further, the values for the concentration for half-maximal inhibition (IC50) (in assay [3]; at Cytochrome P450 2D6) were 873 nM and 292 nM, respectively. Also, on Histamine H3 receptor [8], the Kb is 3.98 nM. The concentration for a half-maximal effect (EC50) at Histamine H3 receptor [1] is 2 nM. For the same molecule, the values for the Ki on Histamine H4 receptor [9] and on Histamine H3 receptor [2] were 8.32 nM and 1.26 nM, respectively.
As for `Nc1ccc(Cc2c[nH]cn2)cc1`, on Histamine H3 receptor [2], the Ki is 257 nM.
In turn, `CCCCc1c[nH]cn1` gave an inhibitory constant (Ki) on Histamine H3 receptor [2] of 25.1 nM. Also, on Histamine H3 receptor [11], the concentration for a half-maximal effect (EC50) was 31.6 nM.
`N#Cc1ccc(Cc2c[nH]cn2)cc1` gave an inhibition constant (Ki) on Histamine H3 receptor [2] of 813 nM.
For the molecule `c1ccc(C[C@@H]2COC(c3cccc(Cc4cnc[nH]4)c3)=N2)cc1`, the Kb on Histamine H3 receptor [8] was 2240 nM. Further, at Histamine H3 receptor [1], the EC50 was 79.4 nM. On Histamine H3 receptor [2], this molecule gave an inhibitory constant (Ki) of 89.1 nM.
Regarding `CC1(C)COC(c2ccc(Cc3c[nH]cn3)cc2)=N1`, the half-inhibitory concentration (IC50) in [3] worked out at 2520 nM; on Cytochrome P450 2D6, 543 nM. Further, the Ki at Histamine H3 receptor [2] is 2510 nM. The molecule also showed an inhibition at Histamine H4 receptor [12] of 17%.
As for `CC(C)(C)CC(=O)c1cccc(Cc2c[nH]cn2)c1`, the inhibition in assay [7] was less than 20%; in [10] it was less than 40%. In addition, in assay [3], the IC50 is 1100 nM.
Molecule `CC(C)(C)C#Cc1ccc(Cc2c[nH]cn2)cc1` gave a Ki on Histamine H3 receptor [2] of 537 nM.
Consider `c1cc(Cc2cnc[nH]2)ccn1` [IMMETHRIDINE], for which, at Histamine H3 receptor [11], the EC50 is 0.2 nM.
Turning to `c1ccc(Cc2c[nH]cn2)cc1`, affinity on Histamine H3 receptor [2] was put at a Ki of 162 nM. In other words, the sub-micromolar range.
`CC(C)(C)C#Cc1cccc(Cc2c[nH]cn2)c1`: the inhibition is less than 20% in assay [7] and less than 40% in assay [10]. The half-inhibitory concentration (IC50) in [3] is 1860 nM; on Cytochrome P450 2D6 it was 1780 nM. Also, on Histamine H3 receptor [8], the Kb is 79.4 nM. Further, the concentration for a half-maximal effect (EC50) at Histamine H3 receptor [1] was 7.94 nM. The values for the Ki on Histamine H4 receptor [9] and at Histamine H3 receptor [2] were 5.62 nM and 4.47 nM, respectively.
On to `CC(C)(C)CC(=O)c1cccc(Cc2cnc[nH]2)c1`, for which, at Histamine H3 receptor [8], the Kb is 955 nM. For the same molecule, the EC50 on Histamine H3 receptor [1] was 79.4 nM. Further, the Ki was 5.62 nM on Histamine H4 receptor [9] and 32.4 nM on Histamine H3 receptor [2]. For the same molecule, the IC50 at Cytochrome P450 2D6 turned out to be 1930 nM.
`CNCCc1c[nH]cn1` had an inhibitory constant (Ki) at Histamine H3 receptor [5] of 2.51 nM.
`CNCCc1cnc[nH]1` returned a pD2 in assay [6] of 7.8.
`c1ccc(COCCCc2c[nH]cn2)cc1` [PROXYFAN] had a Ki on Histamine H3 receptor [13] of 10 nM.

For the origin of these results see ChEMBL document CHEMBL1150292, “4-benzyl-1H-imidazoles with oxazoline termini as histamine H3 receptor agonists” (J Med Chem, 2008).
